Laboratory results taken from patent publication US20230381190A1, “Methods and Treatment for Complex Lymphatic Malformations” (priority 2022, published 2023).
Where “and” joins values, the source holds several entries; their conditions need not be identical. Identical values can stand only once. Like-named read-outs stand apart in the source and are kept apart here.

What was measured:
[1] = Modeling and simulation of human PK for dose selection; details: total daily dose 1.0 mg, divided every 12 hours, 50th percentile
From the text: The doses proposed for this study were selected after modeling and simulation of the human PK of CERC-006 using data reported by Mateo et al (Mateo J, Olmos D, Dumez H, et al. A first in man, dose-finding study of the mTORC1/mTORC2 inhibitor OSI-027 in patients with advanced solid malignancies. Br J Cancer. 2016114(8):889-896) and comparing the PK/PD response for sirolimus in patients with complicated vascular anomalies published by Adams et al (Adams et al, Pediatrics (2016)) and Mizuno et al (Mizuno T, Emoto C, Fukuda T, et al. Model-based precision dosing of sirolimus in pediatric patients with vascular anomalies. Eur J Pharm Sci. 2017; 109S:S124-S131). The goal was to estimate doses that would produce effective trough plasma concentrations of CERC-006 in relation to pharmacological target potency (mTOR complex inhibition) using the PK/PD response achieved by sirolimus in this patient population as a benchmark. […] The additional dose proposed, 2.0 mg/day, is necessary to ensure potential therapeutic benefit while preserving safety and providing a range of plasma concentrations to guide future PK/PD modeling efforts.

[2] = cited from earlier work
[3] = cited from earlier work; remark: listed apart in the source
[4] = linear extrapolation from simulated PK profile, listed as CERC-006
[5] = regardless of relationship, 123 subjects

With `COc1cccc2cc(-c3nc([C@H]4CC[C@H](C(=O)O)CC4)n4ncnc(N)c34)[nH]c12` [AVTX-006, trans-4-[4-Amino-5-(7-methoxyl-1H-indol-2-yl)-imidazo[5,1-f][1,2,4]triazine-7-yl]-cyclohexanecarboxylic acid] the “Free trough concentration above the in vitro IC50 for mTOR complex inhibition” value [1] was “approximately 2 fold”, the “Free trough plasma concentration” value [1, 4] was ~4 ng/mL and ~10 nM and the “Total trough plasma concentration” value [1, 4] was “approximately 27 ng/mL and ~66 nM”. The “Estimated terminal half-life (t1/2)” value ([2]; 240 mg dose in S2 (weekly dose schedule)) was “approximately 14 hours”, the “Dose proportionality of area under the curve (AUC)” value ([2]; S1 and S2, slope close to 1) was “dose proportional” and the “Dose proportionality of increases in Cmax” value ([2]; S1 and S3) was “apparently proportional to dose”. For the same molecule, the “Subjects with TEAEs considered drug regimen-related” value ([3]; 92 of 123 subjects, by the investigator) was 74.8%, the “Drug regimen related TEAE anorexia” value ([3]; 123 subjects) was 21.1% and the “Drug regimen related TEAE fatigue” value ([3]; 123 subjects) was 44.7%. The “Drug regimen related TEAE increased blood creatinine” value ([3]; 123 subjects) was 26.0%, the “Drug regimen related TEAE nausea” value ([3]; 123 subjects) was 40.7% and the “Drug regimen related TEAE vomiting” value ([3]; 123 subjects) was 18.7%. For the same molecule, the “Subjects with related SAEs” value ([3]; Fifteen subjects) was 12.2%, the “Subjects with serious adverse events (SAEs)” value ([3]; Fifty of 123 subjects treated) was 40.6% and the “Maximum tolerated dose (MTD)” value ([3]; S1: once daily for 3 consecutive days every 7 days) was 120 mg. For the same molecule, the “Deaths, subjects” value ([3]; S1) was 48.2%, the “Maximum tolerated dose (MTD)” value ([3]; S2: once weekly, escalation stopped at 240 mg every week) was “not reached” and the “Deaths, subjects” value ([3]; S2) was 25.6%. For the same molecule, the “Maximum tolerated dose (MTD)” value ([3]; S3: once daily dosing) was 30 mg, the “Dose at which renal toxicity was dose limiting” value ([3]; S3: once daily) was 40 mg and the “Deaths, subjects” value ([3]; S3) was 14.3%. For the same molecule, the “Deaths considered drug related” value ([3]; all schedules) was “None”, the “Observed dose limiting toxicities (DLTs)” value ([3]; all schedules) was “fatigue, renal, and cardiac events” and the “Related SAE anorexia” value ([3]; in vivo) was 1 subject. The “Related SAE blood creatinine increased” value ([3]; in vivo) was 2 subjects, the “Related SAE bone pain” value ([3]; in vivo) was 1 subject and the “Related SAE cardiac failure congestive” value ([3]; in vivo) was 1 subject. For the same molecule, the “Related SAE cataract subcapsular” value ([3]; in vivo) was 1 subject, the “Related SAE diarrhea” value ([3]; in vivo) was 1 subject and the “Related SAE fatigue” value ([3]; in vivo) was 3 subjects. For the same molecule, the “Related SAE myocardial infarction” value ([3]; in vivo) was 1 subject, the “Related SAE nausea” value ([3]; in vivo) was 3 subjects and the “Related SAE pneumonia” value ([3]; in vivo) was 1 subject. For the same molecule, the “Related SAE renal failure” value ([3]; in vivo) was 1 subject, the “Related SAE stress cardiomyopathy” value ([3]; in vivo) was 1 subject and the “Related SAE supraventricular tachycardia” value ([3]; in vivo) was 1 subject. The “Related SAE urticaria” value ([3]; in vivo) was 1 subject, the “Related SAE vomiting” value ([3]; in vivo) was 2 subjects and the “TEAE abdominal pain upper, subjects” value [3, 5] was 10.6%. The “TEAE abdominal pain, subjects” value [3, 5] was 17.1%, the “TEAE anemia, subjects” value [3, 5] was 13.8% and the “TEAE anorexia, subjects” value [3, 5] was 40.7%. The “TEAE back pain, subjects” value [3, 5] was 14.6%, the “TEAE blood creatinine increased, subjects” value [3, 5] was 28.5% and the “TEAE constipation, subjects” value [3, 5] was 25.2%. For the same molecule, the “TEAE cough, subjects” value [3, 5] was 14.6%, the “TEAE diarrhea, subjects” value [3, 5] was 22.8% and the “TEAE dyspnea, subjects” value [3, 5] was 17.1%. For the same molecule, the “TEAE fatigue, subjects” value [3, 5] was 65.0%, the “TEAE headache, subjects” value [3, 5] was 14.6% and the “TEAE hypokalemia, subjects” value [3, 5] was 12.2%. For the same molecule, the “TEAE nausea, subjects” value [3, 5] was 60.2%, the “TEAE vomiting, subjects” value [3, 5] was 33.3% and the “TEAE weight decreased, subjects” value [3, 5] was 13.8%.
